Source: patent US20240358702A1, “CYCLIC UREA KRAS INHIBITORS” (INCYTE CORPORATION, priority 2023, published 2024)

Legend:
KRAS G12V = KRAS G12V (Homo sapiens, UniProt P01116, G12V); assay: GDP-GTP exchange assay (bodipy-GDP/GppNHp, SOS1), KRAS G12V; type: biochemical; details: KRAS_G12V exchange assay IC50; value for the most potent isomer quoted
Method: (§1) The inhibitor potency of the exemplified compounds was determined in a fluorescence based guanine nucleotide exchange assay, which measures the exchange of bodipy-GDP (fluorescently labeled GDP) for GppNHp (Non-hydrolyzable GTP analog) to generate the active state of KRAS in the presence of SOS1 (guanine nucleotide exchange factor). Inhibitors were serially diluted in DMSO and a volume of 0.1 μL was transferred to the wells of a black low volume 384-well plate. 5 μL/well volume of bodipy-loaded KRAS G12D diluted to […] in assay buffer (25 mM Hepes pH 7.5, 50 mM NaCl, 10 mM mgCl2 and 0.01% Brij-35) was added to the plate and pre-incubated with inhibitor for 4 h at ambient temperature. Appropriate controls (enzyme with no inhibitor or with a G12D inhibitor) were included on the plate. The exchange was initiated by the addition of a 5 μL/well volume containing 1 mM GppNHp and 300 nM SOS1 in assay buffer. The 10 μL/well reaction concentration of the bodipy-loaded KRAS G12D, GppNHp, and SOS1 were 2.5 nM, 500 uM, and 150 nM, respectively. The reaction plates were incubated at ambient temperature for 2 h, a time estimated for complete GDP-GTP exchange in the absence of inhibitor. For the KRAS G12V mutant, similar guanine nucleotide exchange assays were used with 2.5 nM as final concentration for the bodipy loaded KRAS proteins and 3 h incubation after adding GppNHp-SOS1 mixture. A cyclic peptide described to selectively bind G12D mutant (Sakamoto et al., BBRC 484.3 (2017), 605-611) or internal compounds with confirmed binding were used as positive controls in the assay plates. Fluorescence intensities were measured on a PheraStar plate reader instrument (BMG Labtech) with excitation at 485 nm and emission at 520 nm.
(§2) Either GraphPad prism or Genedata Screener SmartFit was used to analyze the data. The IC50 values were derived by fitting the data to a four parameter logistic equation producing a sigmoidal dose-response curve with a variable Hill coefficient.
(§3) The symbol “t” indicates IC50≤100 nM, “††” indicates IC50>100 nM but ≤1 μM; and “†††” indicates IC50 is >1 μM but ≤5 μM, “††††” indicates IC50 is >5 μM but ≤10 μM. “NA” indicates IC50 not available.

Caco-2 cells = assay: Caco2 assay (permeability, A-B); type: in vitro ADME; details: Papp absorptive direction (A-B), test compound 50 μM, 120 minutes
Method: Caco-2 cells are grown at 37° C. in an atmosphere of 5% CO2 in DMEM growth medium supplemented with 10% (v/v) fetal bovine serum, 1% (v/v) nonessential amino acids, penicillin (100 U/mL), and streptomycin (100 μg/mL). Confluent cell monolayers are subcultured every 7 days or 4 days for Caco-2 by treatment with 0.05% trypsin containing […]. Caco-2 cells are seeded in 96-well Transwell plates. The seeding density for Caco-2 cells is 14,000 cells/well. DMEM growth medium is replaced every other day after seeding. Cell monolayers are used for transport assays between 22 and 25 days for Caco-2 cells.
Cell culture medium is removed and replaced with HBSS. To measure the TEER, the HBSS is added into the donor compartment (apical side) and receiver compartment (basolateral side). The TEER is measured by using a REMS Autosampler to ensure the integrity of the cell monolayers. Caco-2 cell monolayers with TEER values≥300 Ω·cm^2 are used for transport experiments. To determine the Papp in the absorptive direction (A-B), solution of test compound (50 μM) in HBSS is added to the donor compartment (apical side), while HBSS solution with 4% BSA is added to the receiver compartment (basolateral side). The apical volume was 0.075 mL, and the basolateral volume is 0.25 mL. The incubation period is 120 minutes at 37° C. in an atmosphere of 5% CO2. At the end of the incubation period, samples from the donor and receiver sides are removed and an equal volume of acetonitrile is added for protein precipitation. The supernatants are collected after centrifugation (3000 rpm, Allegra X-14R Centrifuge from Beckman Coulter, Indianapolis, IN) for LCMS analysis. The permeability value is determined according to the equation: […]
where the flux rate (F, mass/time) is calculated from the slope of cumulative amounts of compound of interest on the receiver side, SA is the surface area of the cell membrane, VD is the donor volume, and MD is the initial amount of the solution in the donor chamber.
The symbol “+” indicates a Caco-2 value of […], “++” indicates a Caco-2 value of >0.5 but ≤1; and “+++” indicates a Caco-2 value of >1. “NA” indicates IC50 not available.

KRAS G12D = KRAS G12D (Homo sapiens, UniProt P01116, G12D); assay: GDP-GTP exchange assay (bodipy-GDP/GppNHp, SOS1), KRAS G12D; type: biochemical; details: KRAS_G12D exchange assay IC50; 4 h pre-incubation; value for the most potent isomer quoted
Method: as §1, §2, §3

Sequence of KRAS G12D (P01116 1-188 isoform P01116-2 G12D): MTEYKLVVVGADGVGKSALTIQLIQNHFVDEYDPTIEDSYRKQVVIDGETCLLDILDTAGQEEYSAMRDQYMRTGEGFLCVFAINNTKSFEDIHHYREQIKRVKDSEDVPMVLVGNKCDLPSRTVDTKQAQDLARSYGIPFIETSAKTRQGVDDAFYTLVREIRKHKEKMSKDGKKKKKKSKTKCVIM
Sequence of KRAS G12V (P01116 1-188 isoform P01116-2 G12V): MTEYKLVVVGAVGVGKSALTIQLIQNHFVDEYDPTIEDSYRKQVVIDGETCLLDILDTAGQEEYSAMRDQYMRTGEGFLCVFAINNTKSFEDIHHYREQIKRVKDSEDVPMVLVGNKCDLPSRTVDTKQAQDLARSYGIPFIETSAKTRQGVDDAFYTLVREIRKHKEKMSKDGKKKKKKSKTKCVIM

G12V_exchange (KRAS G12V)	G12D_exchange (KRAS G12D)	Compound	Caco-2 (Caco-2 cells)
†	†	Cc1nc2c(F)c(-c3cccc(Cl)c3Cl)c(CCC#N)cc2c2c1cc([C@@H](C)N1CCCN(c3ccnc(F)c3)C1=O)n2[C@H]1[C@H]2CN[C@@H]1C2 (single isomer, unassigned) [Example 6]	+++ (“+++” indicates a Caco-2 value of >1)
†	†	Cc1nc2c(F)c(-c3cccc(Cl)c3Cl)c(CCC#N)cc2c2c1cc([C@@H](C)N1CCCN(c3ccncc3)C1=O)n2[C@H]1[C@H]2CN[C@@H]1C2 (single isomer, unassigned) [Example 1]	+++ (“+++” indicates a Caco-2 value of >1)
†	†	Cc1nc2c(F)c(-c3cccc(Cl)c3Cl)c(CCC#N)cc2c2c1cc([C@@H](C)N1CCCN(c3ccncc3F)C1=O)n2[C@H]1[C@H]2CN[C@@H]1C2 (single isomer, unassigned) [Example 5]	+++ (“+++” indicates a Caco-2 value of >1)

The remaining lines, values behind:

Compound	G12V_exchange (KRAS G12V)	G12D_exchange (KRAS G12D)	Caco-2 (Caco-2 cells)
Cc1nc2c(F)c(-c3cccc(Cl)c3Cl)c(CCC#N)cc2c2c1cc([C@@H](C)N1CCCN(c3ccc(F)cn3)C1=O)n2[C@H]1[C@H]2CN[C@@H]1C2 (single isomer, unassigned) [Example 7]	†	†	+++ (“+++” indicates a Caco-2 value of >1)
Cc1nc2c(F)c(-c3cccc(Cl)c3Cl)c(CCC#N)cc2c2c1cc([C@@H](C)N1CCCN(c3ccccc3)C1=O)n2[C@H]1[C@H]2CN[C@@H]1C2 (single isomer, unassigned) [Example 2]	†	†	+++ (“+++” indicates a Caco-2 value of >1)
CC(O)c1nc2c(F)c(-c3cccc(Cl)c3Cl)c(CCC#N)cc2c2c1cc([C@@H](C)N1CCCN(c3ccncc3)C1=O)n2[C@H]1[C@H]2CN[C@@H]1C2 (single isomer, unassigned) [Example 14]	†	†	+ (“+” indicates a Caco-2 value of 50.5)
Cc1nc2c(F)c(-c3cccc(Cl)c3Cl)c(CCC#N)cc2c2c1cc([C@@H](C)N1CCCN(c3ccc(F)cc3)C1=O)n2[C@H]1[C@H]2CN[C@@H]1C2 (single isomer, unassigned) [Example 3]	†	†	+++ (“+++” indicates a Caco-2 value of >1)
Cc1c(Cl)cc(O)cc1-c1c(CCC#N)cc2c(nc(C)c3cc([C@@H](C)N4CCCN(c5ccncc5)C4=O)n([C@H]4[C@H]5CN[C@@H]4C5)c32)c1F [Example 15, 3-(1-((1R,4R,5S)-2-azabicyclo[2.1.1]hexan-5-yl)-7-(3-chloro-5-hydroxy-2-methylphenyl)-6-fluoro-4-methyl-2-((R)-1-(2-oxo-3-(pyridin-4-yl)tetrahydropyrimidin-1(2H)-yl)ethyl)-1H-pyrrolo[3,2-c]quinolin-8-yl)propanenitrile]	†	†	+ (“+” indicates a Caco-2 value of 50.5)
Cc1nc2c(F)c(-c3cccc(Cl)c3Cl)c(CCC#N)cc2c2c1cc([C@@H](C)N1CCCN(c3ccccn3)C1=O)n2[C@H]1[C@H]2CN[C@@H]1C2 (single isomer, unassigned) [Example 4]	†	†	+ (“+” indicates a Caco-2 value of 50.5)
